The nature of data set [1]: Aqueous solubility of drug substance. The conditions noted are these: aqueous media over pH 3 to 8, aqueous buffer, pH range between 3 to 8. Type of data set: physicochemical. The protocol:
(§1) Compound A for injection was manufactured as a concentrated frozen solution containing 10 mg/mL of free base intended to be diluted with an intravenous (IV) infusion vehicle (normal saline, 0.9% sodium chloride, injection). […] To achieve drug concentration of 10 mg/mL, formulation development focused on identifying acceptable pharmaceutical solvents, surfactants, and pH modifiers to achieve the required solubility of Compound A.

Data set [2] relates to MV4;11 AML model. Put plainly: MV4;11 AML xenograft efficacy. It is filed as in vivo, NOD/SCID mice. The protocol: (§2) RS4;11 and MV4;11 tumors were established subcutaneously in the hind flank of NOD/SCID mice. Mice were randomized and treated with Compound A as either a single pulse dose or weekly for 3 weeks at doses matched for total AUC. MDM2 SMI DS-3032 (Milademetan) was dosed at its clinically equivalent dose and regimen of 3 days on/11 days off. Pharmacodynamic effects were assessed at mRNA level by RT-qPCR and protein level by quantitative targeted mass spectrometry and immunohistochemistry.

The test system of data set [3] is p53 pathway and cleaved caspase-3 (CC-3) in MV4;11 tumors. Put plainly: IHC analysis of MV4;11 tumors. As to conditions: n=3/group. Type of data set: in vivo, NOD/SCID mice. As for the experimental part: as §2
The subject of data set [4] is apoptotic gene BBC3 in RS4;11 tumors. Put plainly: qPCR analysis of RS4;11 tumors. It is filed as in vivo, NOD/SCID mice. As for the experimental part: as §2
Data set [5] deals with CTG-2240 AML PDX model. Put plainly: AML PDX model CTG-2240. It is filed as in vivo, mice. The conditions noted are these: 1 mg/kg, Q3W, IV. The protocol: (§3) AML patient cells from leukapheresis were intravenously (IV) injected and established in immunocompromised host strain mice. Surrogate animals were used to determine the level of engraftment targeting a threshold of ˜20% huCD45+ cells in BM. Mice were randomized on study and treatment was initiated. Vehicle and Compound A, 1 mg/kg were administered IV, every three weeks for six weeks (total of two doses of Compound A). At study end, whole blood, bone marrow and spleen were assessed by flow cytometry.

Data set [6] concerns MOLM-13 cell line. Put plainly: Combination apoptosis and cell killing in MOLM-13. It is filed as cell-based. As to conditions: combination with venetoclax and midostaurin. As for the experimental part:
(§4) All cell lines were cultured according to recommended procedures unless otherwise noted. For growth inhibition assays, cells were treated with compounds for indicated time points. Viability was assessed using Promega® CellTiter-Glo® assay, and apoptosis was assessed using Promega® Caspase-Glo® 3/7 assay. Cell cycle arrest and/or apoptosis in response to single agent or combination treatment was assessed using flow cytometry analysis on cells treated for 24h.

The nature of data set [7]: Measured Log D. It is filed as physicochemical. As to conditions: free base.
The nature of data set [8]: Solubility/stability screening in IV excipients. Type of data set: physicochemical. From the text:
Initial solubility screening of Compound A focused on using different enabling excipients suitable for IV administration. The screening included surfactants, cosolvents, and pH modifiers (i.e., glacial acetic acid, and hydrochloric acid). […] As a result, the selected formulation to support the GLP toxicology study was comprised of 30% propylene glycol, 3% Solutol HS15, and 0.01 M in acetate buffer at pH 5±0.2.
The clinical formulation development was centered on using organic concentrates without water to avoid hydrolysis of Compound A. Additional solubility and stability evaluations of Compound A were conducted with different types of co-solvents and surfactants with and without butylated hydroxytoluene as antioxidant.

Data set [9] deals with multiple heme indications (AML, T cell lymphomas, mantle cell lymphoma, DLBCL). Put plainly: In vitro activity across heme indications. As to conditions: mantle cell lymphoma and DLBCL most sensitive. Type of data set: cell-based. As for the experimental part:
as §4

Data set [10] concerns CTG-2227 AML patient-derived xenograft (PDX) model. As to the kind of experiment: AML PDX model CTG-2227. It is filed as in vivo, mice. The conditions noted are these: 1 mg/kg, Q3W, IV. The protocol: as §3
Data set [11] in a line: Measured pKa. As to conditions: free base. It is filed as physicochemical. The protocol: as §1
Data set [12] concerns p53 pathway (p53, p21, PHLDA3). Put plainly: Targeted proteomic analysis of RS4;11 tumors: p53 pathway biomarkers. Type of data set: in vivo, NOD/SCID mice. The protocol: as §2
For data set [13], the system named is RS4;11 ALL model. Put plainly: RS4;11 ALL xenograft efficacy. As to conditions: for median survival: n=6 animals/group. It is filed as in vivo, NOD/SCID mice. The protocol: as §2
The subject of data set [14] is p53 pathway and cleaved caspase-3 (CC-3) in RS4;11 tumors. Put plainly: IHC analysis of RS4;11 tumors. Type of data set: in vivo, NOD/SCID mice. The conditions noted are these: n=3/group. As for the experimental part:
as §2

Data set [15] addresses T1, MDM2 (Homo sapiens, UniProt Q00987).
T1 construct: RS4;11 and MV4;11 tumors were established subcutaneously in the hind flank of NOD/SCID mice; endogenous in cells; host or cells: RS4;11 xenograft tumors in NOD/SCID mice
Put plainly: Targeted proteomic analysis of RS4;11 tumors: MDM2. It is filed as in vivo, NOD/SCID mice. The conditions noted are these: one hour post dosing. As for the experimental part: as §2

For data set [16], the system named is hCD45+ cells in bone marrow and AML blasts. As to the kind of experiment: Flow cytometry of AML PDX models. It is filed as in vivo, mice. As to conditions: 1 mg/kg, Q3W. The protocol:
as §3

Data set [17] deals with panel of solid and hematological tumor cell lines. As to the kind of experiment: Cell growth inhibition across tumor cell line panel. Type of data set: cell-based. As to conditions: versus MDM2 small molecule inhibitors (SMIs). As for the experimental part:
as §4

Data set [18] relates to OCI-LY10 p53^WT ABC-subtype DLBCL xenograft model. Put plainly: OCI-LY10 DLBCL xenograft. Type of data set: in vivo.
For data set [19], the system named is acute lymphoblastic leukemia (ALL) cell line RS4;11. Put plainly: MDM2/p53 pathway and apoptosis in RS4;11 cells. Type of data set: cell-based.
Data set [20] concerns TMD8 p53^MUT ABC-subtype DLBCL xenograft model. As to the kind of experiment: TMD8 DLBCL xenograft. It is filed as in vivo.
Data set [21] deals with CTG-2700 AML PDX model. As to the kind of experiment: AML PDX model CTG-2700. It is filed as in vivo, mice. The conditions noted are these: 1 mg/kg, Q3W, IV. The protocol:
as §3

In data set [22] the test system is MOLM-13 xenograft model. Put plainly: MOLM-13 xenograft combination study. Type of data set: in vivo.

We go through 3 compounds from patent US20250352535A1, “MDM2 DEGRADERS AND USES THEREOF” (Kymera Therapeutics, Inc., priority 2022, published 2025).

Where only a bound is given, the exact number is not on record here.

T1 sequence (Q00987 whole entry): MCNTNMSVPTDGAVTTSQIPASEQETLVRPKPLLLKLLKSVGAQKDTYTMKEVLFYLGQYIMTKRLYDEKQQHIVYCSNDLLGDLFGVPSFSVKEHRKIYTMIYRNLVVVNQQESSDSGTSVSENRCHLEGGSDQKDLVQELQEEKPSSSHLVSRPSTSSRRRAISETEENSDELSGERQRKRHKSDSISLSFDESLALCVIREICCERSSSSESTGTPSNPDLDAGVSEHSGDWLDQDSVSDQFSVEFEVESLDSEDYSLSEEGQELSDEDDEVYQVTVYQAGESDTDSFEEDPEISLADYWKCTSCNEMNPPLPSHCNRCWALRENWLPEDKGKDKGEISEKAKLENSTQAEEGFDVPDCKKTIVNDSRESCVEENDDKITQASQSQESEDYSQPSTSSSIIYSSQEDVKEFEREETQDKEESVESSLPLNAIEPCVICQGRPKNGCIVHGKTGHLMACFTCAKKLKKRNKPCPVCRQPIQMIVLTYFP

Turning to `Cn1c(=O)n(C2CCC(=O)NC2=O)c2ccc(C3CCN(C(=O)[C@H]4CC[C@H](NC(=O)[C@@H]5NC6(CCCCC6)[C@@]6(C(=O)Nc7cc(Cl)ccc76)[C@H]5c5cccc(Cl)c5F)CC4)CC3)cc21` (stereo partly drawn) [Compound A, (3′R,4′S,5′R)-6″-chloro-4′-(3-chloro-2-fluorophenyl)-N-((1R,4R)-4-(4-(1-(2,6-dioxopiperidin-3-yl)-3-methyl-2-oxo-2,3-dihydro-1H-benzo[d]imidazol-5-yl)piperidine-1-carbonyl)cyclohexyl)-2″-oxodispiro[cyclohexane-1,2′-pyrrolidine-3′,3″-indoline]-5′-carboxamide], the solubility in [1] is below 10 µg/mL; in data set [8] (formulations containing propylene glycol, polyethylene glycol 400, Solutol HS15 and polysorbate 80 at low pH), “significantly enhanced”. In addition, the complete responses in [2] (single dose at 3 mg/kg) is recorded as 5 of 6. Besides, the tumor-free on study in data set [2] (single dose at 3 mg/kg, 80 days post dosing) is 4 of 6. Further, the “robust activation of the p53 pathway and induction of CC-3 (IHC)” value in data set [3] (exposure-matched weekly dosing) was “not”. Moreover, the “activation of the p53 pathway and induction of CC-3 (IHC)” value is “robust activation of the p53 pathway and induction of cleaved caspase-3 (CC-3)” in [3] (single dose); “more robust activation of the p53 pathway and induction of cleaved caspase-3 (CC-3)” in data set [14] (single dose versus exposure-matched weekly dosing). Besides, in [4] (RS4;11 tumors), the “plasma concentration required for induction of the apoptotic gene BBC3” value is “above 0.02 uM”. In addition, the “increase in apoptotic markers (qPCR)” value in data set [4] (exposure-matched weekly dosing, n=3/group) is “only a moderate increase”. In addition, the “induction of the apoptotic gene BBC3 (qPCR)” value in data set [4] (single doses that lead to tumor regression, n=3/group) was “robust induction”. Further, the tumor response entry in [5] is reported as “partial responses”; in data set [10], “tumor regression”; in [13] (exposure-matched weekly dosing), “tumor stasis”; in data set [13] (single doses), “tumor regression”; in data set [21], “partial responses”. For the same compound, the “induction of apoptosis and cell killing” value in data set [6] was “enhances induction of apoptosis and cell killing”. Besides, the logD in [7] was above 3.7. Further, the solubility and stability entry in data set [8] (combination of polyethylene glycol 400, ethanol, polysorbate 80 and butylated hydroxytoluene, 10 mg/mL) was “sufficient solubility and stability”. The in vitro activity entry in data set [9] is on record as “active across multiple heme indications”. In addition, the pKa in data set [11] was determined as 5. Further, the “proteomics biomarkers p53, p21 (cell cycle arrest marker) and PHLDA3 (apoptotic marker)” value in data set [12] was “upregulation”. Besides, in data set [13] (maintained for 12 to 22 hours), the “plasma concentration required for tumor regression” value is given as “above 0.01 uM”. Also, the median survival in [13] (single dose at 3 mg/kg) worked out at 50 days. For the same compound, the “degradation of MDM2 in tumors” value in data set [15] is “robust degradation”. For the same compound, the “hCD45+ cells in bone marrow and AML blasts” value in data set [16] was “significantly reduces”. For the same compound, the “cell growth inhibition compared to SMIs” value in data set [17] is listed as above 200 fold. Further, the “activity in xenograft model” value in [18] was “highly active”. Also, the “effect on p53-dependent upregulation of MDM2 protein levels” value in [19] (compared with reversible SMIs) is given as “can overcome the p53-dependent upregulation of MDM2 protein levels”. Besides, in data set [19] (pulsed dose, mediated through p53 target genes), the “apoptosis in washout experiments” value is reported as “can lead to apoptosis”. Further, the p53 stabilization entry in data set [19] (short 2 hour exposures, versus SMIs) was “more potently stabilize p53 than SMIs”. Further, the “highly active in xenograft model” value in [20] is on record as “not”. The anti-tumor activity result in [22] (single dose of Compound A in combination with daily dosing of venetoclax) is on record as “sustained tumor regression”.

`CC1(C)CCC2(CC1)N[C@@H](C(=O)N[C@@H]1CC[C@@H](C(N)=O)OC1)[C@H](c1ccnc(Cl)c1F)[C@]21C(=O)Nc2cc(Cl)ccc21` [DS-3032, Milademetan, reference compound]: in [2] (clinically equivalent dose and regimen, n=6 animals/group), the complete responses result is “No complete responses”. Further, the “induction of CC-3 (IHC)” value in data set [3] (similar to the lower weekly dosing regimen of Compound A) was “modest”; in data set [14] (treatment with the SMI) it was “not observed”. Besides, the median survival in data set [13] (clinically equivalent dosing regimen (3 days on/11 days off)) was determined as 12 days.

As to `Nc1ccn([C@@H]2O[C@H](CO)[C@@H](O)[C@@H]2O)c(=O)n1` [cytarabine], the anti-tumor activity entry in data set [22] (combination of cytarabine and venetoclax) is reported as “no significant anti-tumor activity”; in data set [22] (cytarabine alone) it was “no significant anti-tumor activity”.
